Consider 13 molecules from PubChem BioAssay (NCI).

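Five concentrations, 48 hours, 96-well plates. At the GI50, growth is halved. TGI marks complete inhibition of growth.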

Test systems include OVCAR-4 ovarian; HCT-15 colon; SF-295 CNS; SK-OV-3 ovarian; SK-MEL-28 melanoma; SK-MEL-2 melanoma; MCF7 breast; UACC-257 melanoma; SN12C renal; NCI-H460 lung.
Test in all cases: NCI-60 cell line screen, 48 h

Consider `C=C1c2ccccc2C(=O)c2c1c1c(C(=O)OC)c(O)ccc1n2Cc1ccccc1`, for which the TGI came out at 1.77 µM in the assay on OVCAR-4 ovarian; 1.2 µM with HCT-15 colon; 1.99 µM in the assay with SF-295 CNS; 1.35 µM with SK-OV-3 ovarian; 1.07 µM in the assay with SK-MEL-28 melanoma; 2.39 µM with SK-MEL-2 melanoma. Also, the TGI is 0.763 µM in the assay with MCF7 breast, 5.98 µM in the assay with UACC-257 melanoma, 0.939 µM in the assay on SN12C renal and 2.34 µM in the assay with NCI-H460 lung.
With `CCOC(=O)C1=C(C)OC2(O)C=CC(O)=C3C(=O)N(c4ccccc4)C(=O)C312` (stereo not given), the TGI was greater than 100 µM with OVCAR-4 ovarian; greater than 100 µM in the assay with HCT-15 colon; greater than 100 µM in the assay with SF-295 CNS; greater than 100 µM in the assay with SK-OV-3 ovarian; 49.7 µM in the assay on SK-MEL-28 melanoma; 68.4 µM in the assay with SK-MEL-2 melanoma. Also, the TGI with MCF7 breast is 79.4 µM; in the assay with UACC-257 melanoma, 99.4 µM; in the assay with SN12C renal, greater than 100 µM; in the assay with NCI-H460 lung it was greater than 100 µM.
For `Nc1ncnc2c1ncn2C=C=CCO`, the TGI with OVCAR-4 ovarian, in the assay on HCT-15 colon, in the assay on SF-295 CNS, in the assay with SK-MEL-28 melanoma, in the assay with SK-MEL-2 melanoma and in the assay on MCF7 breast was greater than 100 µM throughout. The TGI in the assay with UACC-257 melanoma, in the assay with SN12C renal and in the assay on NCI-H460 lung was greater than 100 µM throughout.
Consider `NN(CC(=O)O)CC(=O)O`, for which the TGI in the assay with OVCAR-4 ovarian, in the assay on HCT-15 colon, with SF-295 CNS, in the assay on SK-OV-3 ovarian, with SK-MEL-28 melanoma and in the assay with SK-MEL-2 melanoma was greater than 100 µM each time. The TGI in the assay on MCF7 breast, in the assay with UACC-257 melanoma, in the assay with SN12C renal and in the assay on NCI-H460 lung was greater than 100 µM each time.
In the case of `CN1CCc2[nH]c3ccccc3c2C1`, the TGI with OVCAR-4 ovarian, with HCT-15 colon, with SF-295 CNS, in the assay on SK-OV-3 ovarian, with SK-MEL-28 melanoma and in the assay with SK-MEL-2 melanoma was greater than 100 µM throughout. Besides, the TGI in the assay on MCF7 breast, in the assay on UACC-257 melanoma, in the assay with SN12C renal and in the assay with NCI-H460 lung was greater than 100 µM each time.
`CCCCCCCCCCCCCCCCCCOc1ccccc1CC(=O)OCC[N+]1(C)CCCCC1`: the GI50 in the assay on OVCAR-4 ovarian was 2.81 µM; with HCT-15 colon, 4.65 µM; in the assay with SF-295 CNS it was 2.93 µM; with SK-OV-3 ovarian, 18.2 µM; with SK-MEL-28 melanoma, 2.51 µM; in the assay with MCF7 breast, 2.07 µM. In addition, the GI50 was 2.79 µM in the assay on UACC-257 melanoma, 2.07 µM in the assay on SN12C renal and 2.34 µM with NCI-H460 lung. Besides, the TGI with OVCAR-4 ovarian worked out at 10.5 µM; in the assay on HCT-15 colon it was 27.7 µM; in the assay on SF-295 CNS, 9.62 µM; in the assay with SK-OV-3 ovarian, 38.2 µM; in the assay with SK-MEL-28 melanoma it was 6.33 µM; in the assay on MCF7 breast, 4.97 µM. Moreover, the TGI turned out to be 7.91 µM in the assay on UACC-257 melanoma, 4.93 µM in the assay on SN12C renal and 5.43 µM in the assay with NCI-H460 lung.
In the case of `O=C(Nc1ccc(Cl)cc1)c1cc2cc(N=Nc3ccccc3Cl)ccc2oc1=O`, the TGI was greater than 100 µM with OVCAR-4 ovarian; 24.1 µM with HCT-15 colon; 91.9 µM in the assay with SF-295 CNS; 84 µM with SK-OV-3 ovarian; 55.7 µM in the assay on SK-MEL-28 melanoma; 47 µM in the assay with SK-MEL-2 melanoma. For the same molecule, the TGI in the assay on UACC-257 melanoma was 68.2 µM; in the assay on SN12C renal, 44.7 µM; in the assay on NCI-H460 lung it was greater than 100 µM.
Regarding `O=C([O-])C[n+]1ccccc1`, the TGI with OVCAR-4 ovarian, with HCT-15 colon, in the assay on SF-295 CNS, in the assay with SK-OV-3 ovarian, with SK-MEL-28 melanoma and with SK-MEL-2 melanoma was greater than 100 µM throughout. In addition, the TGI in the assay on MCF7 breast, with UACC-257 melanoma, with SN12C renal and in the assay with NCI-H460 lung was greater than 100 µM in each case.
`COc1cc2c(c(O)c1OC)-c1c(cc(OC)c(OC)c1OC)CC(C)C(C)C2` (stereo not given): the TGI in the assay on OVCAR-4 ovarian, with HCT-15 colon, with SF-295 CNS, in the assay on SK-OV-3 ovarian, with SK-MEL-28 melanoma and with SK-MEL-2 melanoma was greater than 100 µM in each case. The TGI in the assay with MCF7 breast, in the assay on UACC-257 melanoma, in the assay on SN12C renal and with NCI-H460 lung was greater than 100 µM throughout.
For `CN1CCOC(c2ccc(Cl)cc2)O1` (stereo not given), the TGI in the assay on OVCAR-4 ovarian, in the assay on HCT-15 colon, in the assay with SF-295 CNS, with SK-OV-3 ovarian, in the assay on SK-MEL-28 melanoma and in the assay with SK-MEL-2 melanoma was greater than 100 µM throughout. Besides, the TGI with MCF7 breast, with UACC-257 melanoma, in the assay on SN12C renal and in the assay on NCI-H460 lung was greater than 100 µM throughout.
For `CC(C)=CCC/C(C)=C/CC/C(C)=C/CC/C(C)=C/C=C/C=C(\C)CC/C=C(\C)CC/C=C(\C)CCC=C(C)C`, the TGI with OVCAR-4 ovarian, with HCT-15 colon, in the assay on SF-295 CNS, with SK-OV-3 ovarian, in the assay on SK-MEL-28 melanoma and with SK-MEL-2 melanoma was greater than 100 µM throughout. The TGI in the assay on MCF7 breast was greater than 100 µM; with UACC-257 melanoma, greater than 100 µM; in the assay on SN12C renal it was greater than 55.3 µM; in the assay with NCI-H460 lung, greater than 58.4 µM.
`O=C(O)c1cc([N+](=O)[O-])cc2c(=O)c3cnccc3[nH]c12`: the TGI in the assay with OVCAR-4 ovarian, in the assay with HCT-15 colon, in the assay with SF-295 CNS, in the assay on SK-OV-3 ovarian, in the assay with SK-MEL-28 melanoma and in the assay with SK-MEL-2 melanoma was greater than 100 µM throughout. Further, the TGI in the assay with MCF7 breast, with SN12C renal and in the assay with NCI-H460 lung was greater than 100 µM throughout.
As for `CN(C)CCCSc1nc2ccccc2[nH]1`, the TGI with OVCAR-4 ovarian, with HCT-15 colon, in the assay with SF-295 CNS, in the assay on SK-OV-3 ovarian, in the assay with SK-MEL-28 melanoma and in the assay with SK-MEL-2 melanoma was greater than 100 µM throughout. The TGI in the assay on MCF7 breast, in the assay on UACC-257 melanoma, in the assay on SN12C renal and with NCI-H460 lung was greater than 100 µM each time.
